# Experimental data reported in ChEMBL document CHEMBL5715949, “Discovery of a selective irreversible BMX inhibitor for prostate cancer” (ACS Chem Biol, 2013).
# Activity calls are given as the source filed them. No cut-off for these calls is given here.
# What was measured:
# [1] = molecular target: Serine/threonine-protein kinase 3 (Homo sapiens) (UniProt Q13188); assay: Inhibition of MST2 (unknown origin) assessed as remaining activity at 1 uM by Kinome scan method relative to control
# [2] = molecular target: Serine/threonine-protein kinase Nek3 (Homo sapiens) (UniProt P51956); assay: Inhibition of NEK3 (unknown origin) assessed as remaining activity at 1 uM by Kinome scan method relative to control
# [3] = molecular target: Mitogen-activated protein kinase 12 (Homo sapiens) (UniProt P53778); assay: Inhibition of P38gamma (unknown origin) assessed as remaining activity at 1 uM by Kinome scan method relative to control
# [4] = molecular target: Tyrosine-protein kinase Mer (Homo sapiens) (UniProt Q12866); assay: Inhibition of MERTK (unknown origin) assessed as remaining activity at 1 uM by Kinome scan method relative to control
# DU-145 = assay: Antiproliferative activity against human DU-145 cells assessed growth inhibition incubated for 2 to 5 days by CellTiter-Glo assay; assay type: functional; details: time 2-5 day
# [5] = tested on: Tyrosine-protein kinase ABL1 (Homo sapiens), P00519 [E255K]; assay: Inhibition of phosphorylated ABL1 E255K mutant (unknown origin) assessed as remaining activity at 1 uM by Kinome scan method relative to control
# [6] = tested on: Tyrosine-protein kinase ABL1 (Homo sapiens), P00519 [F317I]; assay: Inhibition of ABL1 F317I mutant (unknown origin) assessed as remaining activity at 1 uM by Kinome scan method relative to control
# [7] = molecular target: Activin receptor type-1B (Homo sapiens) (UniProt P36896); assay: Inhibition of ACVR1B (unknown origin) assessed as remaining activity at 1 uM by Kinome scan method relative to control
# [8] = molecular target: Activin receptor type-2A (Homo sapiens) (UniProt P27037); assay: Inhibition of ACVR2A (unknown origin) assessed as remaining activity at 1 uM by Kinome scan method relative to control
# [9] = molecular target: 5'-AMP-activated protein kinase catalytic subunit alpha-2 (Homo sapiens) (UniProt P54646); assay: Inhibition of AMPK-alpha2 (unknown origin) assessed as remaining activity at 1 uM by Kinome scan method relative to control
# [10] = molecular target: Aurora kinase A (Homo sapiens) (UniProt O14965); assay: Inhibition of AURKA (unknown origin) assessed as remaining activity at 1 uM by Kinome scan method relative to control
# [11] = molecular target: Death-associated protein kinase 1 (Homo sapiens) (UniProt P53355); assay: Inhibition of DAPK1 (unknown origin) assessed as remaining activity at 1 uM by Kinome scan method relative to control
# [12] = molecular target: Ephrin type-A receptor 1 (Homo sapiens) (UniProt P21709); assay: Inhibition of EPHA1 (unknown origin) assessed as remaining activity at 1 uM by Kinome scan method relative to control
# [13] = molecular target: Ephrin type-B receptor 2 (Homo sapiens) (UniProt P29323); assay: Inhibition of EPHB2 (unknown origin) assessed as remaining activity at 1 uM by Kinome scan method relative to control
# [14] = molecular target: Fibroblast growth factor receptor 2 (Homo sapiens) (UniProt P21802); assay: Inhibition of FGFR2 (unknown origin) assessed as remaining activity at 1 uM by Kinome scan method relative to control
# [15] = molecular target: Tyrosine-protein kinase Fgr (Homo sapiens) (UniProt P09769); assay: Inhibition of FGR (unknown origin) assessed as remaining activity at 1 uM by Kinome scan method relative to control
# [16] = molecular target: Receptor-type tyrosine-protein kinase FLT3 (Homo sapiens) (UniProt P36888); assay: Inhibition of FLT3 (unknown origin) assessed as remaining activity at 1 uM by Kinome scan method relative to control
# [17] = molecular target: Cyclin-G-associated kinase (Homo sapiens) (UniProt O14976); assay: Inhibition of GAK (unknown origin) assessed as remaining activity at 1 uM by Kinome scan method relative to control
# [18] = molecular target: Hormonally up-regulated neu tumor-associated kinase (Homo sapiens) (UniProt P57058); assay: Inhibition of HUNK (unknown origin) assessed as remaining activity at 1 uM by Kinome scan method relative to control
# [19] = molecular target: Tyrosine-protein kinase JAK1 (Homo sapiens) (UniProt P23458); assay: Inhibition of JAK1 JH2 domain (unknown origin) assessed as remaining activity at 1 uM by Kinome scan method relative to control
# [20] = tested on: Mast/stem cell growth factor receptor Kit (Homo sapiens), P10721 [D816V]; assay: Inhibition of KIT D816V mutant (unknown origin) assessed as remaining activity at 1 uM by Kinome scan method relative to control
# [21] = molecular target: Tyrosine-protein kinase Lyn (Homo sapiens) (UniProt P07948); assay: Inhibition of LYN (unknown origin) assessed as remaining activity at 1 uM by Kinome scan method relative to control
# [22] = molecular target: Serine/threonine-protein kinase MARK1 (Homo sapiens) (UniProt Q9P0L2); assay: Inhibition of MARK1 (unknown origin) assessed as remaining activity at 1 uM by Kinome scan method relative to control
# [23] = molecular target: Serine/threonine-protein kinase MARK2 (Homo sapiens) (UniProt Q7KZI7); assay: Inhibition of MARK2 (unknown origin) assessed as remaining activity at 1 uM by Kinome scan method relative to control
# [24] = molecular target: MAP/microtubule affinity-regulating kinase 3 (Homo sapiens) (UniProt P27448); assay: Inhibition of MARK3 (unknown origin) assessed as remaining activity at 1 uM by Kinome scan method relative to control
# [25] = tested on: Phosphatidylinositol 4,5-bisphosphate 3-kinase catalytic subunit alpha isoform (Homo sapiens), P42336 [I800L]; assay: Inhibition of PIK3CA I800L mutant (unknown origin) assessed as remaining activity at 1 uM by Kinome scan method relative to control
# [26] = molecular target: Protein kinase C eta type (Homo sapiens) (UniProt P24723); assay: Inhibition of PRKCH (unknown origin) assessed as remaining activity at 1 uM by Kinome scan method relative to control
# [27] = tested on: Proto-oncogene tyrosine-protein kinase receptor Ret (Homo sapiens), P07949 [V804L]; assay: Inhibition of RET V804L (unknown origin) assessed as remaining activity at 1 uM by Kinome scan method relative to control
# [28] = molecular target: Proto-oncogene tyrosine-protein kinase Src (Homo sapiens) (UniProt P12931); assay: Inhibition of SRC (unknown origin) assessed as remaining activity at 1 uM by Kinome scan method relative to control
# [29] = molecular target: TGF-beta receptor type-1 (Homo sapiens) (UniProt P36897); assay: Inhibition of TGFBR1 (unknown origin) assessed as remaining activity at 1 uM by Kinome scan method relative to control
# [30] = molecular target: Vascular endothelial growth factor receptor 2 (Homo sapiens) (UniProt P35968); assay: Inhibition of VEGFR2 (unknown origin) assessed as remaining activity at 1 uM by Kinome scan method relative to control
# RV-1 = assay: Antiproliferative activity against human RV-1 cells assessed as reduction in cell viability at 500 to 2500 nM incubated for 5 days in presence of AZD8055 by CellTiter-Glo assay; assay type: functional, cell-based; details: dose 500-2500 nM, time 5.0 day
# Vascular endothelial growth factor receptor 2 (Homo sapiens), sequence (P35968 whole entry): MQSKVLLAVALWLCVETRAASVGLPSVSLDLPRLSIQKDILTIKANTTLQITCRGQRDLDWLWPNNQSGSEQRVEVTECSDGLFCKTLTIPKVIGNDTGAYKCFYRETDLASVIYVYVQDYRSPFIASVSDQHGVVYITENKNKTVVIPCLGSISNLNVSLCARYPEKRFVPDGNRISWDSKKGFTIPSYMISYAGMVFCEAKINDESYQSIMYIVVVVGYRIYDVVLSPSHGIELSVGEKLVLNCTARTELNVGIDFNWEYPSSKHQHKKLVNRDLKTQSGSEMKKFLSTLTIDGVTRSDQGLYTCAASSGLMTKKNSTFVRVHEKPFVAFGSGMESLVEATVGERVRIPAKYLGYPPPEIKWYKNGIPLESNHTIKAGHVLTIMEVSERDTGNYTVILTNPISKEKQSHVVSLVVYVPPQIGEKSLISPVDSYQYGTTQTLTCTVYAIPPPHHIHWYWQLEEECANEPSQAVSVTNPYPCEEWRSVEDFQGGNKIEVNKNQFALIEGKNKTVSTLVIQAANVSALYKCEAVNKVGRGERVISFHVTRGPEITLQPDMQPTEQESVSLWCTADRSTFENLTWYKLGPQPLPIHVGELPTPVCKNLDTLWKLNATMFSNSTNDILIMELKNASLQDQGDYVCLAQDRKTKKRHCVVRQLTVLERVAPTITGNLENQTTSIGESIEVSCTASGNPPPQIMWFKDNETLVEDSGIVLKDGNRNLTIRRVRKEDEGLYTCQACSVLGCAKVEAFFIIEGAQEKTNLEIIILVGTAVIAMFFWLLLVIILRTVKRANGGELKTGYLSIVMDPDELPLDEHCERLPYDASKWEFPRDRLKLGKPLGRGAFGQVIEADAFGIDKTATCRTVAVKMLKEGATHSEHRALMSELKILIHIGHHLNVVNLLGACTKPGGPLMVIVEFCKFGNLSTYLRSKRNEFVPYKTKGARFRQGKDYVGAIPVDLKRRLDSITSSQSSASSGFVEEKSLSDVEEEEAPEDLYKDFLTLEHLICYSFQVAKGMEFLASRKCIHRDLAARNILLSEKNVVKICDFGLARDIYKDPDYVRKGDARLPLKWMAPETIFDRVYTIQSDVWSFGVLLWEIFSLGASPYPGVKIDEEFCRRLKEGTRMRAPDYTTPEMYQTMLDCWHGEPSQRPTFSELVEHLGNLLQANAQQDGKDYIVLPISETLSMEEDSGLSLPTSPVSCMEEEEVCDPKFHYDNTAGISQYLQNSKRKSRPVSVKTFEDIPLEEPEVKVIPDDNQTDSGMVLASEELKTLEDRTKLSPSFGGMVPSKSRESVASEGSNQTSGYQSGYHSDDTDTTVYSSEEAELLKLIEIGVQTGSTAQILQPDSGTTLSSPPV
# Hormonally up-regulated neu tumor-associated kinase (Homo sapiens), sequence (P57058 whole entry, the tested form may be a part): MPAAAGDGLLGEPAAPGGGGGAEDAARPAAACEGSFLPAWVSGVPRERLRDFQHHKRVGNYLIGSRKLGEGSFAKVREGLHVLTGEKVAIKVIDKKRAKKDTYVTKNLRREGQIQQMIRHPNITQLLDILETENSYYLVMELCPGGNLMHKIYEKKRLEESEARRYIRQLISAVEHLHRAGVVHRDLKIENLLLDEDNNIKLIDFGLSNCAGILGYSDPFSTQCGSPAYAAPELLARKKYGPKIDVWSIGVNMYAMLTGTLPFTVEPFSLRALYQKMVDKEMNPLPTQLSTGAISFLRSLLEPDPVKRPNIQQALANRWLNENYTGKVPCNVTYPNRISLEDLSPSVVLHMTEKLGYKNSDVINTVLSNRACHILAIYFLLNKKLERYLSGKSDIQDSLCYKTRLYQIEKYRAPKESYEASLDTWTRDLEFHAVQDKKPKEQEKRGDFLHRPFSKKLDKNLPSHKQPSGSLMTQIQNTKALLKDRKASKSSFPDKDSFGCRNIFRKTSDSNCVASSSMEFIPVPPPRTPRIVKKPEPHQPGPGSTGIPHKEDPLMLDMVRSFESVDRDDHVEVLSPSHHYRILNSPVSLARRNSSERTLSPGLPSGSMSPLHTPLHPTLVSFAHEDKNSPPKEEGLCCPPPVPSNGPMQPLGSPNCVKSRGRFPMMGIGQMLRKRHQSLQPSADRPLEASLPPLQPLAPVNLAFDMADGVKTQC
# Ephrin type-A receptor 1 (Homo sapiens), sequence (P21709 whole entry): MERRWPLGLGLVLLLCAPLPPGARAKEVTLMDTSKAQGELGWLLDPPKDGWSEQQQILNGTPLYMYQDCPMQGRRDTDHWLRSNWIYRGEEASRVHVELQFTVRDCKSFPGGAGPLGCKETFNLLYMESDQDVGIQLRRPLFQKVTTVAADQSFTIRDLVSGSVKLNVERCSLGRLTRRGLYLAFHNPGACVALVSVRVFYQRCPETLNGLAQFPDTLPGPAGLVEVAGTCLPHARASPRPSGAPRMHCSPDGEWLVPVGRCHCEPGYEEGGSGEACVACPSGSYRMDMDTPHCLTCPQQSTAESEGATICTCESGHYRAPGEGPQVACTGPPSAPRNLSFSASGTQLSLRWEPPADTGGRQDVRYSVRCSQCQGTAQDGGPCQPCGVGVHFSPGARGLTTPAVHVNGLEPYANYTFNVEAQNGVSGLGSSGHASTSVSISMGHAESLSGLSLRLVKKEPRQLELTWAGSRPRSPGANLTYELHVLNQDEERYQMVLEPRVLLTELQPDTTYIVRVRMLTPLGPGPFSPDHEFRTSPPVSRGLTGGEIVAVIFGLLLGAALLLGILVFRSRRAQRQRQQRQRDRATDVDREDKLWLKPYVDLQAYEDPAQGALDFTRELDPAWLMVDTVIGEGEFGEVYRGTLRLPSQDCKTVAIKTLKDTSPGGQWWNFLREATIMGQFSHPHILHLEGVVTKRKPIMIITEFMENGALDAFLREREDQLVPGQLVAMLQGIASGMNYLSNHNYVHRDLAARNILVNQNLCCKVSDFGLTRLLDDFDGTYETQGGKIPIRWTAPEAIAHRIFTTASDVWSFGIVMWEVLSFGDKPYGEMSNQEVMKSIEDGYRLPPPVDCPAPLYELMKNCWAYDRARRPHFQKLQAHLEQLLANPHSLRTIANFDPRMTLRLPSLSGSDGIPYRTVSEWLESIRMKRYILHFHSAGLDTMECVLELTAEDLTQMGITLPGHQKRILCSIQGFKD
# Serine/threonine-protein kinase 3 (Homo sapiens), sequence (Q13188 whole entry): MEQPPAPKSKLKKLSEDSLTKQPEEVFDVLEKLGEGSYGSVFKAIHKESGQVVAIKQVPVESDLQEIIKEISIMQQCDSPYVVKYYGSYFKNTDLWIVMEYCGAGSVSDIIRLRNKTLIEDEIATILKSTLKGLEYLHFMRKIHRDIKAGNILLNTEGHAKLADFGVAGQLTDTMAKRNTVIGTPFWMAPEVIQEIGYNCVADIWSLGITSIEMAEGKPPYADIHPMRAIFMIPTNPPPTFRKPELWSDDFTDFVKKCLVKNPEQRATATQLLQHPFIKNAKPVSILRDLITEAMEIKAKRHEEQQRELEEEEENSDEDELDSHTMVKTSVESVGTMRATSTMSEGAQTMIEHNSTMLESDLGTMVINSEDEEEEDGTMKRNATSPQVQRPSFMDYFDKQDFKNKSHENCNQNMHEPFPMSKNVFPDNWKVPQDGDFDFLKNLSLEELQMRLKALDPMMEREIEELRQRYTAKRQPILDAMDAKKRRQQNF
# Serine/threonine-protein kinase MARK2 (Homo sapiens), sequence (Q7KZI7 whole entry): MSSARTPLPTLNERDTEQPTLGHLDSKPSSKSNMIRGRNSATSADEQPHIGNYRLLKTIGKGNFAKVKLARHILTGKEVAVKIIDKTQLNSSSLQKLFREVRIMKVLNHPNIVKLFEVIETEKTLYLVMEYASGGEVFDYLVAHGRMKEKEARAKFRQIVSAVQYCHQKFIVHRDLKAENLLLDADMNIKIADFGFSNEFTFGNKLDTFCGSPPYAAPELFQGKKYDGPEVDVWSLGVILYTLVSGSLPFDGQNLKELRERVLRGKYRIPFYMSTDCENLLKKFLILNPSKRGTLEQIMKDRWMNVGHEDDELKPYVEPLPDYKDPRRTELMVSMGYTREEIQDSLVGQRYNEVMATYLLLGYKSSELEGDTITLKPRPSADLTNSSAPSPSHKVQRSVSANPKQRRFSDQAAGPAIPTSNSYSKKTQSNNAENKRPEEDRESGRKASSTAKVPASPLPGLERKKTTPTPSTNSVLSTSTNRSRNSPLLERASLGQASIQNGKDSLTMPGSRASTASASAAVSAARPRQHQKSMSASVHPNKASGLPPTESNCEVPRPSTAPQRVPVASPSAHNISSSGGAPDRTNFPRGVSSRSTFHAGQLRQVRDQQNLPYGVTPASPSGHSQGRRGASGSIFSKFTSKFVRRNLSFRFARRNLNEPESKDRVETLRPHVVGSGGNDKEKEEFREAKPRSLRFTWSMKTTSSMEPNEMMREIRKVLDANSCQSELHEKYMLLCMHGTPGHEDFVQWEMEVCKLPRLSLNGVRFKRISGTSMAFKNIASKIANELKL
# MAP/microtubule affinity-regulating kinase 3 (Homo sapiens), sequence (P27448 whole entry, looked up, canonical isoform): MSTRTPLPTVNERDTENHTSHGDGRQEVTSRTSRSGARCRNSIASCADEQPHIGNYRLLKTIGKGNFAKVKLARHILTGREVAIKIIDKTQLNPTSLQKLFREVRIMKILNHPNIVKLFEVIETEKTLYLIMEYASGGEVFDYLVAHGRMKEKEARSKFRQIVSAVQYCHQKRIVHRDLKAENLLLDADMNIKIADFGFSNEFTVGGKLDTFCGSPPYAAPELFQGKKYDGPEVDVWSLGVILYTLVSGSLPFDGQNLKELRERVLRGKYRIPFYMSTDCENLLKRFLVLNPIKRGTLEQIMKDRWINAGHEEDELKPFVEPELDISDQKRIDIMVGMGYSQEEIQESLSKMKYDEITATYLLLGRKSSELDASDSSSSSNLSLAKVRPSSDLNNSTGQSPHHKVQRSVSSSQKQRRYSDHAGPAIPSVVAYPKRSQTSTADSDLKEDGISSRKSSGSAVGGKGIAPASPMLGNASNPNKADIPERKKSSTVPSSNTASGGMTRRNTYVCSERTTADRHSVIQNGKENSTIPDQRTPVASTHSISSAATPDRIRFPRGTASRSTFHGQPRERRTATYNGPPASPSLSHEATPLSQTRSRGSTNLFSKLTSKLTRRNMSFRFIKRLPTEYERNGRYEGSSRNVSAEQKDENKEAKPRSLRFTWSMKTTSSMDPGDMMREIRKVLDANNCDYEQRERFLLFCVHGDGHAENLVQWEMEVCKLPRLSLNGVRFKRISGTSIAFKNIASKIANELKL
compound,measurement,setting,value
C=CC(=O)Nc1cc(-n2c(=O)ccc3cnc4ccc(-c5ccc(NS(C)(=O)=O)cc5)cc4c32)ccc1C,Activity,[1],62%
same,Activity,[2],98%
same,Activity,[3],72%
same,Activity,[4],72%
same,GI50,DU-145,4.38 µM
same,Activity,[5],63%
same,Activity,[6],81%
same,Activity,[7],84%
same,Activity,[8],94%
same,Activity,[9],92%
same,Activity,[10],75%
same,Activity,[11],96%
same,Activity,[12],92%
same,Activity,[13],80%
same,Activity,[14],96%
same,Activity,[15],72%
same,Activity,[16],80%
same,Activity,[17],74%
same,Activity,[18],85%
same,Activity,[19],99%
same,Activity,[20],69%
same,Activity,[21],92%
same,Activity,[22],97%
same,Activity,[23],94%
same,Activity,[24],75%
same,Activity,[25],46%
same,Activity,[26],98%
same,Activity,[27],79%
same,Activity,[28],92%
same,Activity,[29],97%
same,Activity,[30],97%
same,Activity,RV-1,Active
